How the values were obtained:
[1] = oral administration; cited from earlier work
[2] = test system: androgenic, estrogenic or glucocorticoid actions; settings: at therapeutic levels; cited from earlier work
[3] = Absorption of the hormones applied onto the skin; format: in vivo
Description: These levels of these hormones applied onto the skin result in 10% absorption, and thus correspond to a daily dose of about 300 to 450 μg of the progestin and about 100 to 150 μg of the estrogen. Expressed in a different manner, it would also be possible to equate these levels of absorption of these hormones to corresponding plasma levels in the patient.

ovulation = assay: Ovulation blockade by NES at given serum level; format: in vivo; settings: doses leading to serum levels of 250 pmol/L

absorption rate ([3]; female, human, in vivo) | Compound | activity when administered orally [1] | androgenic, estrogenic or glucocorticoid actions [2] | absorption rate ([3]; applied in a transdermal manner) | subjects in whom ovulation was blocked (ovulation)
– | C=C1C[C@H]2[C@@H]3CCC4=CC(=O)CC[C@@H]4[C@H]3CC[C@]2(C)[C@@]1(OC(C)=O)C(C)=O [NES, 16-methylene-17α-acetoxy-19-norpregn-4-ene-3,20-dione] | not active | does not carry androgenic, estrogenic or glucocorticoid actions | approximately 10% | more than 95%
approximately 10% | C[C@]12CC[C@@H]3c4ccc(O)cc4CC[C@H]3[C@@H]1CC[C@@H]2O [estradiol, 17β-estradiol] | – | – | – | –

— patent US9682087B2 (The Population Council, Inc., priority 2009, dated 2017)
